In ChEMBL document CHEMBL6083237, “Adenanthin exhibits anti-inflammatory effects by covalently targeting the p65 subunit in the NF-κB signaling pathway” (Eur J Med Chem, 2024):
Activity calls are given as the source filed them. No cut-off for these calls is given here.

How the values were obtained:
Transcription factor p65 [1] = biological target: T1, Transcription factor p65 (Homo sapiens, UniProt Q04206); assay: (§1) Binding affinity to recombinant FLAG-tagged p65 (unknown origin) expressed in HEK293T cells assessed as retention time of carbamidomethylation on Cys38 residue of C38EGRSAGSIPGERSTDTTK56 with m/z 814.7165 measured following LysC digestion at 10 uM incubated for 3 hrs by HCD/EThcD based mass spectrometry; format: cell-based
Transcription factor p65 [2] = biological target: T1, Transcription factor p65; assay: as §1, with “814.7164” for “814.7165”; format: cell-based
RAW264.7 [3] = assay: Inhibition of p65 phosphorylation in LPS-stimulated mouse RAW264.7 cells at 1 to 10 uM incubated for 6 hrs by wester blot analysis; format: cell-based; settings: dose 1-10 µM
[4] = biological target: T2, NF-kappa-B inhibitor alpha (Mus musculus) (UniProt Q9Z1E3); assay: Inhibition of IkappaB alpha phosphorylation in LPS-stimulated mouse RAW264.7 cells at 1 to 10 uM incubated for 6 hrs by western blot analysis; format: cell-based; settings: dose 1-10 µM
T2 sequence (whole entry): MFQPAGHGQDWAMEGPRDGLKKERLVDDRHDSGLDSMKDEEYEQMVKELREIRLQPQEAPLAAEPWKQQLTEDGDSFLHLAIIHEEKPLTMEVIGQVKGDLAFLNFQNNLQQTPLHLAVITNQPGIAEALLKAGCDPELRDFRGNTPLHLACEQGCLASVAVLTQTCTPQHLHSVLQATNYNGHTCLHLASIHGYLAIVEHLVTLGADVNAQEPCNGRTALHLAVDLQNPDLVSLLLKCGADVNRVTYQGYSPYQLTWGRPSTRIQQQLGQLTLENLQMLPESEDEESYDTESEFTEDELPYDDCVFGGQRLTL

RAW264.7 [5] = assay: Inhibition of p65 nuclear translocation in LPS-stimulated mouse RAW264.7 cells at 1 to 10 uM incubated for 6 hrs by western blot analysis; format: cell-based; settings: dose 1-10 µM
RAW264.7 [6] = assay: Inhibition of NF-kappaB signaling pathway in mouse RAW264.7 cells assessed as decrease in COX-2 protein expression at 10 to 75 uM incubated for 6 hrs by western blot analysis; format: cell-based; settings: dose 10-75 µM
RAW264.7 [7] = assay: Inhibition of NF-kappaB signaling pathway in mouse RAW264.7 cells assessed as decrease in iNOS protein expression at 10 to 75 uM incubated for 6 hrs by western blot analysis; format: cell-based; settings: dose 10-75 µM
Transcription factor p65 [8] = biological target: T1, Transcription factor p65; assay: Displacement of biotin-labeled p65 binding oligonucleotides from p65 (unknown origin) overexpressed in HEK293T cell nuclear extract incubated for 2 hrs by electrophoretic mobility shift assay; format: subcellular, Nucleus
[9] = Displacement of biotin-labeled p65 binding oligonucleotides from p65/p65-C38A mutant (unknown origin) overexpressed in HEK293T cell nuclear extract incubated for 2 hrs by electrophoretic mobility shift assay; format: subcellular, Homo sapiens, Nucleus
HEK-293T [10] = assay: Antiproliferative activity against HEK293T cells assessed as inhibition of cell proliferation incubated for 72 hrs by Alamar Blue dye based fluorescence analysis; format: functional; settings: Homo sapiens
HEK-293T [11] = assay: Antiproliferative activity against HEK293T cells overexpressing p65 assessed as inhibition of cell proliferation incubated for 72 hrs by Alamar Blue dye based fluorescence analysis; format: functional; settings: Homo sapiens
HEK-293T [12] = assay: Antiproliferative activity against HEK293T cells overexpressing p65 C38A mutant assessed as inhibition of cell proliferation incubated for 72 hrs by Alamar Blue dye based fluorescence analysis; format: functional; settings: Homo sapiens
[13] = Ratio of IC50 for antiproliferative activity against HEK293T cells overexpressing p65 C38A mutant to IC50 for HEK293T cells overexpressing p65; format: functional, Homo sapiens
HEK-293T [14] = assay: Antiproliferative activity against mutant HEK293T cells overexpressing p65 C38A mutant assessed as inhibition of cell proliferation incubated for 72 hrs by Alamar Blue dye based fluorescence analysis; format: functional; settings: Homo sapiens
[15] = Ratio of IC50 for antiproliferative activity against mutant HEK293T cells overexpressing p65 C38A mutant to IC50 for antiproliferative activity against HEK293T cells; format: functional, Homo sapiens
Transcription factor p65 [16] = biological target: T1, Transcription factor p65; assay: Binding affinity to recombinant FLAG-tagged p65 (unknown origin) expressed in HEK293T cells assessed as 490.2203 Da modification on Cys38 residue of C38EGRSAGSIPGERSTDTTK56 measured following LysC digestion at 10 uM incubated for 3 hrs by HCD/EThcD based mass spectrometry; format: cell-based

T1 sequence (Q04206 whole entry): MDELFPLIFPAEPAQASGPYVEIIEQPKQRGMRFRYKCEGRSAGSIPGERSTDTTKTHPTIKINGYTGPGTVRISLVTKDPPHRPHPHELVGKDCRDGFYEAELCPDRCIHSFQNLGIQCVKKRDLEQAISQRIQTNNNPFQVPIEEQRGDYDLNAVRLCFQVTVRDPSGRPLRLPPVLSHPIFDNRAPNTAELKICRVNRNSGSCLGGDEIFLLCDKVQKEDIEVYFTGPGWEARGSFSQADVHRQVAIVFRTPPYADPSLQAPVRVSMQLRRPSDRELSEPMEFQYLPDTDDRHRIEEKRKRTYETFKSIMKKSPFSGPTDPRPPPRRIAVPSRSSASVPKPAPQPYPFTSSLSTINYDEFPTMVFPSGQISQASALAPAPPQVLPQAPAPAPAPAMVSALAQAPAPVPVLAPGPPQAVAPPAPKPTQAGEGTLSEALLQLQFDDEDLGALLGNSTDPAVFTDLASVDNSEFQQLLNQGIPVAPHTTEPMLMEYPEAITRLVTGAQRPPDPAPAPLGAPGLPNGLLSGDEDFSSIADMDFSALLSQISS

Retention time (Transcription factor p65 [1]): 14.4 min
Retention time (Transcription factor p65 [2]): 14.6 min
inhibition [4]: Dose-dependent-effect
IC50 (Transcription factor p65 [8]): ~40 µM
IC50 [9]: ~100 µM
Activity (Transcription factor p65 [16]): Active
SMILES: C=C1C(=O)[C@]23C[C@H]1C[C@H](OC(C)=O)[C@H]2[C@]1(C)[C@@H](OC(C)=O)C[C@H](O)C(C)(C)[C@H]1C(=O)[C@@H]3OC(C)=O [ADENANTHIN]
inhibition (RAW264.7 [3]): Dose-dependent-effect
inhibition (RAW264.7 [5]): Active
inhibition (RAW264.7 [6]): Active
inhibition (RAW264.7 [7]): Active
IC50 (HEK-293T [10]): 720 nM
IC50 (HEK-293T [11]): 810 nM
IC50 (HEK-293T [12]): 2000 nM
Ratio IC50 [13]: 2
IC50 (HEK-293T [14]): 9.94 µM
Ratio IC50 [15]: 10
